Measurements: US9352015B2, “Antimicrobial peptides” (priority 2009, dated 2016)
≈ marks a conversion by molar mass, not a printed value. Where “and” joins values, the source holds several entries; their conditions need not be identical. Equal values may be shown once. Read-outs that look alike come from different tables or passages of the source.

Assays:
[1] = RP-HPLC temperature profiling (peptide self-association parameter PA); format: physicochemical; conditions: enantiomer pairs of V681 analogs, 5° C. to 80° C., relative to peptide C
Procedure, shortened: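 Peptide retention was profiled by RP-HPLC at pH 2 from 5 °C to 80 °C in 3 °C increments, using a linear gradient of 0.5% acetonitrile/min. The monomeric random-coil control peptide C profile was subtracted. PA is the maximum change in retention time relative to control C; higher PA means greater self-association.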

Pseudomonas aeruginosa = conditions: for MIC PAO 1: 37° C., 24 h, strain PAO1; for MIC GM (geometric mean of the MIC values): six P. aeruginosa strains; for MIC CP 204: strain CP204; for MIC M 2: strain M2; for MIC PA 14: strain PA14; for MIC PAK: strain PAK; for MIC WR 5: strain WR5
human erythrocytes [2] = test: Hemolytic activity against human erythrocytes (HC50 / MHC, microtiter dilution); format: cell-based; conditions: V681 analog studies
[3] = as above; format: cell-based; conditions: 1% human erythrocytes, pH 7.4, read-out: Hemolytic activity HC50
Procedure: (§1) Hemoglobin release was determined spectrophotometrically at 570 nm. The hemolytic activity was determined as the peptide concentration that caused 50% hemolysis of erythrocytes after 18 h (HC50). […] HC50 was determined by a plot of peptide concentration versus percent lysis.

human erythrocytes [4] = test: as above; format: cell-based
Procedure: as §1

Acinetobacter baumannii = format: cell-based
Procedure, shortened: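 Microtiter broth dilution in triplicate, mainly LB no-salt medium (MH or BHI in some cases), peptides serially diluted, final inoculum 5×10^5 CFU/ml (1×10^5 CFU/ml in MH variant); 24 h at 37° C. MIC is the lowest peptide concentration inhibiting growth, given in micromolar against clinical isolates.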

[5] = RP-HPLC retention as measure of overall peptide hydrophobicity; format: physicochemical; conditions: pH 2, room temperature
Procedure: Crude and purified peptides were analyzed on an Agilent 1100 series liquid chromatograph (Little Falls, Del.). Runs were performed on a Zorbax 300 SB-C8 column (150×2.1 mm I.D.; 5 μm particle size, 300 Å pore size) from Agilent Technologies using linear AB gradient (1% acetonitrile/min) and a flow rate of 0.25 ml/min, where eluant A was 0.2% aqueous TFA, pH 2 and eluant B was 0.2% TFA in acetonitrile.

[6] = human erythrocytes, concentration of peptide that results in 50% hemolysis after 18 hours at 37° C.
[7] = human red blood cells, 50% hemolysis after 18 h

SMILES: CC[C@@H](C)[C@@H](NC(=O)[C@@H](C)NC(=O)[C@@H](CCCCN)NC(=O)[C@@H](CC(C)C)NC(=O)[C@@H](C)NC(=O)[C@H](NC(=O)[C@@H](Cc1c[nH]cn1)NC(=O)[C@@H](CC(C)C)NC(=O)[C@H](NC(=O)[C@H](NC(=O)[C@@H](CCCCN)NC(=O)[C@@H](CCCCN)NC(=O)[C@@H](C)NC(=O)[C@@H](CO)NC(=O)[C@@H](CCCCN)NC(=O)[C@@H](Cc1ccccc1)NC(=O)[C@H](NC(=O)[C@@H](CCCCN)NC(=O)[C@@H](CC(C)C)NC(=O)[C@@H](Cc1ccccc1)NC(=O)[C@@H](CO)NC(=O)[C@@H](CCCCN)NC(=O)[C@@H](Cc1c[nH]c2ccccc12)NC(=O)[C@@H](CCCCN)NC(C)=O)[C@H](C)O)[C@H](C)O)C(C)C)[C@H](C)O)C(=O)N[C@H](CO)C(=O)N[C@H](CO)C(N)=O [Peptide D1, Ac-KWKSFLKTFKSAKKTVLHTALKAISS-amide]
- PA (peptide self-association parameter) [1]: 2.1
- MIC PAO 1 (Pseudomonas aeruginosa; Brain Heart Infusion medium): 31.3 µg/mL (≈ 10.5 µM)
- MIC GM (geometric mean of the MIC values) (Pseudomonas aeruginosa; Brain Heart Infusion medium): 31.2 µg/mL
- MIC CP 204 (Pseudomonas aeruginosa; Brain Heart Infusion medium): 62.5 µg/mL (≈ 20.9 µM)
- MIC M 2 (Pseudomonas aeruginosa; Brain Heart Infusion medium): 62.5 µg/mL (≈ 20.9 µM)
- MIC PA 14 (Pseudomonas aeruginosa; Brain Heart Infusion medium): 15.6 µg/mL (≈ 5.22 µM)
- MIC PAK (Pseudomonas aeruginosa; Brain Heart Infusion medium): 31.3 µg/mL (≈ 10.5 µM)
- MIC WR 5 (Pseudomonas aeruginosa; Brain Heart Infusion medium): 15.6 µg/mL (≈ 5.22 µM)
- MIC PAO 1 (Pseudomonas aeruginosa; Mueller Hinton medium): 7.8 µg/mL (≈ 2.61 µM)
- MIC GM (geometric mean of the MIC values) (Pseudomonas aeruginosa; Mueller Hinton medium): 12.4 µg/mL
- MIC CP 204 (Pseudomonas aeruginosa; Mueller Hinton medium): 15.6 µg/mL (≈ 5.22 µM)
- MIC M 2 (Pseudomonas aeruginosa; Mueller Hinton medium): 7.8 µg/mL (≈ 2.61 µM)
- MIC PA 14 (Pseudomonas aeruginosa; Mueller Hinton medium): 15.6 µg/mL (≈ 5.22 µM)
- MIC PAK (Pseudomonas aeruginosa; Mueller Hinton medium): 15.6 µg/mL (≈ 5.22 µM)
- MIC WR 5 (Pseudomonas aeruginosa; Mueller Hinton medium): 15.6 µg/mL (≈ 5.22 µM)
- Pseudomonas aeruginosa MICGM (Pseudomonas aeruginosa; geometric mean, 6 different isolates, 24 hours at 37° C.): 4.1 µM
- Hemolytic activity, minimal hemolytic concentration (MHC) (human erythrocytes [2]): non-hemolytic
- HC50 at 18 h [3, 6]: 141 µM
- HC50 at 18 h [3, 7]: 422 µg/mL
- Hemolytic activity HC50 (human erythrocytes [4]; 50% hemolysis after 18 hours at 37° C.): 141 µM
- Hemolytic activity HC50 (human erythrocytes [4]; [6]): 140.9 µM
- Hemolytic activity HC50 (human erythrocytes [4]; [7]): 421.5 µg/mL
- Hemolytic activity HC50 (human erythrocytes [4]; human red blood cells, 18 h): 140.9 µM
- MIC (Acinetobacter baumannii; A. baumannii strain 1 ATCC 17978, Mueller Hinton medium, 24 hours at 37° C.): 0.8 µM (≈ 2.39 µg/mL)
- MIC (Acinetobacter baumannii; A. baumannii strain 2 ATCC 19606, Mueller Hinton medium, 24 hours at 37° C.): 1.5 µM (≈ 4.49 µg/mL)
- MIC (Acinetobacter baumannii; A. baumannii strain 3, 649 Blood, Mueller Hinton medium, 24 hours at 37° C.): 0.8 µM (≈ 2.39 µg/mL)
- MIC (Acinetobacter baumannii; A. baumannii strain 4, 689 Groin, Mueller Hinton medium, 24 hours at 37° C.): 0.8 µM (≈ 2.39 µg/mL)
- MIC (Acinetobacter baumannii; A. baumannii strain 5, 759 Gluteus, Mueller Hinton medium, 24 hours at 37° C.): 1.5 µM (≈ 4.49 µg/mL)
- MIC (Acinetobacter baumannii; A. baumannii strain 6, 821 Urine, Mueller Hinton medium, 24 hours at 37° C.): 1.5 µM (≈ 4.49 µg/mL)
- MIC (Acinetobacter baumannii; A. baumannii strain 7, 884 Axilla, Mueller Hinton medium, 24 hours at 37° C.): 1.5 µM (≈ 4.49 µg/mL)
- MIC (Acinetobacter baumannii; A. baumannii strain 8, 899 Perineum, Mueller Hinton medium, 24 hours at 37° C.): 1.5 µM (≈ 4.49 µg/mL)
- MIC (Acinetobacter baumannii; A. baumannii strain 9, 964 Throat, Mueller Hinton medium, 24 hours at 37° C.): 1.5 µM (≈ 4.49 µg/mL)
- MIC (Acinetobacter baumannii; A. baumannii strain 10, 985 Pleural fluid, Mueller Hinton medium, 24 hours at 37° C.): 0.8 µM (≈ 2.39 µg/mL)
- MIC (Acinetobacter baumannii; A. baumannii strain 11, 1012 Sputum, Mueller Hinton medium, 24 hours at 37° C.): 0.8 µM (≈ 2.39 µg/mL)
- Antimicrobial Activity MIC against A. baumannii (Acinetobacter baumannii; geometric mean (GM-MIC), 11 clinical isolates): 1.1 µM
- MIC GM (geometric mean) (Acinetobacter baumannii; geometric mean of the MIC values from 11 different isolates of Acinetobacter baumannii, Mueller Hinton medium): 1.1 µM (≈ 3.29 µg/mL)
- Acinetobacter baumannii MICGM (Acinetobacter baumannii; geometric mean, 11 different isolates, 24 hours at 37° C.): 1.1 µM
- Hydrophobicity (retention time in RP-HPLC) [5]: 76.8 min and 76.75 min
